“And” between values parts separate entries of the source, which are not always exact repeats. Equal values may be shown once. Inconclusive results are not listed.
Test system: BDF1 mice, s.c. Lewis lung carcinoma, T/C %
Experiment: NCI In Vivo Anticancer Drug Screen. Data for tumor model Lewis Lung Carcinoma (subcutaneous) in B6D2F1 (BDF1) mice
Method in brief: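 Transplanted tumors grown in mice; compound vs vehicle dosing; endpoint survival or tumor size; ratio T/C.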

[1] = endpoint: mean tumor weight, dose: 133.0 mg/kg/injection, schedule: Q01DX011 (ip), vehicle: other, higher = larger tumour
[2] = endpoint: mean tumor weight, dose: 200.0 mg/kg/injection, schedule: Q01DX011 (ip), vehicle: other, higher = larger tumour
[3] = endpoint: mean tumor weight, dose: 300.0 mg/kg/injection, schedule: Q01DX011 (ip), vehicle: other, higher = larger tumour
[4] = endpoint: median survival time, dose: 50.0 mg/kg/injection, schedule: Q01DX009 (ip), vehicle: saline with Tween-80, higher = longer survival
[5] = endpoint: mean tumor weight, dose: 37.0 mg/kg/injection, schedule: Q01DX011 (ip), vehicle: other, higher = larger tumour
[6] = endpoint: mean tumor weight, dose: 55.0 mg/kg/injection, schedule: Q01DX011 (ip), vehicle: other, higher = larger tumour
[7] = endpoint: mean tumor weight, dose: 83.0 mg/kg/injection, schedule: Q01DX011 (ip), vehicle: other, higher = larger tumour

O=C(O)CSC1(SCC(=O)O)CCCCC1
T/C [1]: 75 % of control
T/C [2]: 77 % of control
T/C [3]: 104 % of control
T/C (endpoint: mean tumor weight, dose: 450.0 mg/kg/injection, schedule: Q01DX011 (ip), vehicle: other, higher = larger tumour): 86 % of control

c1cc[c]([Sn]([S][Sn]([c]2ccccc2)([c]2ccccc2)[c]2ccccc2)([c]2ccccc2)[c]2ccccc2)cc1
T/C [4]: 91 % of control
T/C (endpoint: median survival time, dose: 100.0 mg/kg/injection, schedule: Q01DX009 (ip), vehicle: saline with Tween-80, higher = longer survival): 93 % of control
T/C (endpoint: median survival time, dose: 200.0 mg/kg/injection, schedule: Q01DX009 (ip), vehicle: saline with Tween-80, higher = longer survival): 102 % of control

CCC1NC(=O)C(NC(=O)c2ncccc2O)C(C)OC(=O)C(c2ccccc2)NC(=O)C2CC(=O)CCN2C(=O)C(Cc2ccccc2)N(C)C(=O)C2CCCN2C1=O (configuration not stated) (tested in a mixture with another compound)
T/C (endpoint: median survival time, dose: 9.4 mg/kg/injection, schedule: Q01DX009 (ip), vehicle: Klucel (hydroxypropylcellulose) (HPC), higher = longer survival): 102 % of control
T/C (endpoint: median survival time, dose: 18.75 mg/kg/injection, schedule: Q01DX009 (ip), vehicle: Klucel (hydroxypropylcellulose) (HPC), higher = longer survival): 87 % of control
T/C (endpoint: median survival time, dose: 37.5 mg/kg/injection, schedule: Q01DX009 (ip), vehicle: Klucel (hydroxypropylcellulose) (HPC), higher = longer survival): 94 % of control

O=NN(CCCl)C(=O)NC1CCC(O)CC1 (configuration not stated)
T/C (endpoint: median survival time, dose: 10.0 mg/kg/injection, schedule: Q01DX001 (ip), vehicle: Klucel (hydroxypropylcellulose) (HPC), higher = longer survival): 104 % of control
T/C (endpoint: median survival time, dose: 10.0 mg/kg/injection, schedule: Q01DX001 (ip), vehicle: other, higher = longer survival): 112 % of control and 119 % of control
T/C (endpoint: median survival time, dose: 20.0 mg/kg/injection, schedule: Q01DX001 (ip), vehicle: Klucel (hydroxypropylcellulose) (HPC), higher = longer survival): 105 % of control
T/C (endpoint: median survival time, dose: 20.0 mg/kg/injection, schedule: Q01DX001 (ip), vehicle: other, higher = longer survival): 105 % of control
T/C (endpoint: median survival time, dose: 40.0 mg/kg/injection, schedule: Q01DX001 (ip), vehicle: Klucel (hydroxypropylcellulose) (HPC), higher = longer survival): 186 % of control
T/C (endpoint: median survival time, dose: 40.0 mg/kg/injection, schedule: Q01DX001 (ip), vehicle: other, higher = longer survival): 202 % of control
T/C (endpoint: median survival time, dose: 80.0 mg/kg/injection, schedule: Q01DX001 (ip), vehicle: Klucel (hydroxypropylcellulose) (HPC), higher = longer survival): 108 % of control

Nc1nc2[nH]c(=O)cnc2c(=O)[nH]1
T/C (endpoint: median survival time, dose: 12.5 mg/kg/injection, schedule: Q01DX009 (ip), vehicle: saline with Tween-80, higher = longer survival): 97 % of control
T/C [4]: 99 % of control
T/C (endpoint: median survival time, dose: 100.0 mg/kg/injection, schedule: Q01DX009 (ip), vehicle: saline, higher = longer survival): 104 % of control
T/C (endpoint: median survival time, dose: 200.0 mg/kg/injection, schedule: Q01DX009 (ip), vehicle: saline, higher = longer survival): 104 % of control
T/C (endpoint: median survival time, dose: 400.0 mg/kg/injection, schedule: Q01DX009 (ip), vehicle: saline, higher = longer survival): 110 % of control

N/C(CCSc1ccccc1N=Cc1ccccc1O)=N/O
T/C (endpoint: median survival time, dose: 3.13 mg/kg/injection, schedule: Q01DX009 (ip), vehicle: olive oil, sesame oil, peanut oil, higher = longer survival): 87 % of control

CC(=O)c1c(O)c(C)c(O)c(Cc2c(O)c3c(c(C(=O)/C=C/c4ccccc4)c2O)OC(C)(C)C=C3)c1O
T/C (endpoint: mean tumor weight, dose: 15.0 mg/kg/injection, schedule: Q01DX011 (ip), vehicle: saline, higher = larger tumour): 96 % of control
T/C (endpoint: mean tumor weight, dose: 22.0 mg/kg/injection, schedule: Q01DX011 (ip), vehicle: saline, higher = larger tumour): 82 % of control
T/C (endpoint: mean tumor weight, dose: 35.0 mg/kg/injection, schedule: Q01DX011 (ip), vehicle: saline, higher = larger tumour): 79 % of control

Cn1cnc([N+](=O)[O-])c1Sc1nc(N)nc2c1ncn2C1OC(CO)C(O)C1O (configuration not stated)
T/C (endpoint: mean tumor weight, dose: 1.0 mg/kg/injection, schedule: Q01DX011 (ip), vehicle: other, higher = larger tumour): 76 % of control
T/C (endpoint: mean tumor weight, dose: 2.0 mg/kg/injection, schedule: Q01DX011 (ip), vehicle: other, higher = larger tumour): 64 % of control
T/C (endpoint: mean tumor weight, dose: 4.0 mg/kg/injection, schedule: Q01DX011 (ip), vehicle: other, higher = larger tumour): 42 % of control
T/C (endpoint: mean tumor weight, dose: 8.0 mg/kg/injection, schedule: Q01DX011 (ip), vehicle: other, higher = larger tumour): 18 % of control and 38 % of control
T/C (endpoint: mean tumor weight, dose: 16.0 mg/kg/injection, schedule: Q01DX011 (ip), vehicle: other, higher = larger tumour): 37 % of control

COc1ccc(-c2cc(=O)c3c(OC)c(OC)c(OC)c(OC)c3o2)c(OC)c1
T/C (endpoint: mean tumor weight, dose: 12.5 mg/kg/injection, schedule: Q01DX011 (sc), vehicle: steriod suspending solution, higher = larger tumour): 72 % of control
T/C (endpoint: mean tumor weight, dose: 25.0 mg/kg/injection, schedule: Q01DX011 (sc), vehicle: steriod suspending solution, higher = larger tumour): 88 % of control
T/C (endpoint: mean tumor weight, dose: 50.0 mg/kg/injection, schedule: Q01DX011 (sc), vehicle: steriod suspending solution, higher = larger tumour): 87 % of control
T/C (endpoint: mean tumor weight, dose: 100.0 mg/kg/injection, schedule: Q01DX011 (sc), vehicle: steriod suspending solution, higher = larger tumour): 86 % of control

CCn1cnc2c(=S)nc(N)[nH]c21
T/C (endpoint: mean tumor weight, dose: 3.8 mg/kg/injection, schedule: Q01DX011 (ip), vehicle: other, higher = larger tumour): 81 % of control
T/C (endpoint: mean tumor weight, dose: 7.5 mg/kg/injection, schedule: Q01DX011 (ip), vehicle: other, higher = larger tumour): 63 % of control
T/C (endpoint: mean tumor weight, dose: 15.0 mg/kg/injection, schedule: Q01DX011 (ip), vehicle: other, higher = larger tumour): 17 % of control

OCC(Br)CBr (configuration not stated)
T/C [5]: 97 % of control
T/C [6]: 66 % of control

NC(CSC(c1ccccc1)(c1ccccc1)c1ccccc1)C(=O)O (configuration not stated)
T/C (endpoint: mean tumor weight, dose: 12.0 mg/kg/injection, schedule: Q01DX011 (ip), vehicle: methylcellulose (MC), higher = larger tumour): 115 % of control
T/C (endpoint: median survival time, dose: 8.0 mg/kg/injection, schedule: Q01DX009 (ip), vehicle: Klucel (hydroxypropylcellulose) (HPC), higher = longer survival): 120 % of control
T/C (endpoint: median survival time, dose: 32.0 mg/kg/injection, schedule: Q01DX009 (ip), vehicle: Klucel (hydroxypropylcellulose) (HPC), higher = longer survival): 112 % of control

CC(=O)O[C@@H]1[C@@H](O)[C@H]2O[C@@H]3C=C(C)CC[C@]3(CO)[C@]1(C)[C@@]21CO1
T/C (endpoint: median survival time, dose: 1.25 mg/kg/injection, schedule: Q01DX009 (ip), vehicle: saline with Tween-80, higher = longer survival): 92 % of control
T/C (endpoint: median survival time, dose: 2.5 mg/kg/injection, schedule: Q01DX009 (ip), vehicle: saline with Tween-80, higher = longer survival): 100 % of control
T/C (endpoint: median survival time, dose: 5.0 mg/kg/injection, schedule: Q01DX009 (ip), vehicle: saline with Tween-80, higher = longer survival): 97 % of control

O=C(O)CCCc1ccc(N(CCCl)CCCl)cc1
T/C (endpoint: mean tumor weight, dose: 3.13 mg/kg/injection, schedule: Q01DX011 (ip), vehicle: saline, higher = larger tumour): 66 % of control
T/C (endpoint: mean tumor weight, dose: 6.25 mg/kg/injection, schedule: Q01DX011 (ip), vehicle: saline, higher = larger tumour): 54 % of control
T/C (endpoint: mean tumor weight, dose: 7.5 mg/kg/injection, schedule: Q01DX011 (ip), vehicle: carboxymethylcellulose (CMC), higher = larger tumour): 55 % of control
T/C (endpoint: mean tumor weight, dose: 12.5 mg/kg/injection, schedule: Q01DX011 (ip), vehicle: saline, higher = larger tumour): 26 % of control
T/C (endpoint: median survival time, dose: 1.0 mg/kg/injection, schedule: Q01DX009 (ip), vehicle: saline with Tween-80, higher = longer survival): 113 % of control
T/C (endpoint: median survival time, dose: 2.0 mg/kg/injection, schedule: Q01DX009 (ip), vehicle: saline with Tween-80, higher = longer survival): 101 % of control and 124 % of control
T/C (endpoint: median survival time, dose: 4.0 mg/kg/injection, schedule: Q01DX001 (ip), vehicle: saline with Tween-80, higher = longer survival): 94 % of control
T/C (endpoint: median survival time, dose: 8.0 mg/kg/injection, schedule: Q01DX001 (ip), vehicle: saline with Tween-80, higher = longer survival): 112 % of control
T/C (endpoint: median survival time, dose: 8.0 mg/kg/injection, schedule: Q01DX009 (ip), vehicle: saline with Tween-80, higher = longer survival): 110 % of control and 114 % of control
T/C (endpoint: median survival time, dose: 16.0 mg/kg/injection, schedule: Q01DX001 (ip), vehicle: saline with Tween-80, higher = longer survival): 107 % of control
T/C (endpoint: median survival time, dose: 32.0 mg/kg/injection, schedule: Q01DX001 (ip), vehicle: saline with Tween-80, higher = longer survival): 89 % of control

CC(=O)[C@H]1CC[C@H]2[C@@H]3CC[C@@H]4CC(=O)CC[C@]4(C)[C@H]3[C@@H]3O[C@@H]3[C@]12C
T/C [5]: 150 % of control
T/C [6]: 99 % of control
T/C [7]: 108 % of control
T/C (endpoint: mean tumor weight, dose: 250.0 mg/kg/injection, schedule: Q01DX011 (ip), vehicle: other, higher = larger tumour): 122 % of control

Oc1cc2c3c(c1)c1cc4c(cc1c[n+]3CC2)OCO4
T/C (endpoint: median survival time, dose: 3.13 mg/kg/injection, schedule: Q01DX009 (ip), vehicle: water, higher = longer survival): 109 % of control
T/C (endpoint: median survival time, dose: 6.25 mg/kg/injection, schedule: Q01DX009 (ip), vehicle: water, higher = longer survival): 96 % of control
T/C (endpoint: median survival time, dose: 12.5 mg/kg/injection, schedule: Q01DX009 (ip), vehicle: water, higher = longer survival): 122 % of control
T/C (endpoint: median survival time, dose: 25.0 mg/kg/injection, schedule: Q01DX009 (ip), vehicle: water, higher = longer survival): 96 % of control

CCCNC1=C(N2CC2)C(=O)C(NCCC)=C(N2CC2)C1=O
T/C (endpoint: median survival time, dose: 2.5 mg/kg/injection, schedule: Q01DX009 (ip), vehicle: saline, higher = longer survival): 102 % of control
T/C (endpoint: median survival time, dose: 5.0 mg/kg/injection, schedule: Q01DX009 (ip), vehicle: saline, higher = longer survival): 112 % of control
T/C (endpoint: median survival time, dose: 10.0 mg/kg/injection, schedule: Q01DX009 (ip), vehicle: saline, higher = longer survival): 114 % of control

C1=Cc2ccccc2CC1
T/C [1]: 121 % of control
T/C [2]: 46 % of control
T/C [3]: 45 % of control

CN(CCC(=O)c1ccccc1)CCC(=O)c1ccccc1
T/C [6]: 91 % of control
T/C [7]: 122 % of control

O=NN(CCCl)C(=O)NC1CS(=O)(=O)CS(=O)(=O)C1
T/C (endpoint: median survival time, dose: 5.3 mg/kg/injection, schedule: Q04DX004 (ip), vehicle: saline with Tween-80, higher = longer survival): 82 % of control
T/C (endpoint: median survival time, dose: 8.0 mg/kg/injection, schedule: Q04DX004 (ip), vehicle: saline with Tween-80, higher = longer survival): 151 % of control
T/C (endpoint: median survival time, dose: 12.0 mg/kg/injection, schedule: Q04DX004 (ip), vehicle: saline with Tween-80, higher = longer survival): 99 % of control
T/C (endpoint: median survival time, dose: 18.0 mg/kg/injection, schedule: Q04DX004 (ip), vehicle: saline with Tween-80, higher = longer survival): 118 % of control
